From US20220016196A1, “Aloe Based Compositions Comprising Polysaccharides and Polyphenols for Regulation of Homeostasis of Immunity” (Unigen, Inc., priority 2020, published 2022)

Assay: LPS-induced acute lung injury, BAL total protein (BCA)
Type: in vivo, rat
Conditions: rats
Protocol: The study was designed to evaluate the direct impact of an Aloe-based composition (UP360) made in the Example 9 in alleviating LPS-induced acute lung injury administered orally at 500 mg/kg and 250 mg/kg. […] In this study, we treated rats with the test materials orally for 7 days before model induction with LPS. On the 8th day, an hour after oral treatment, LPS was instilled intratracheally (i.t.) at 10 mg/kg dissolved in 0.1 mL/100 g PBS to each rat. The normal control rats received the same volume i.t. PBS only.
We sacrificed surviving animals 24 hours after intratracheal LPS administration to the rats. At necropsy, collected bronchoalveolar lavage (BAL) by intratracheal injection of 1.5 mL PBS into the right lobe followed by gentle aspiration at least 3 times. Pooled recovered fluid, centrifuged at 1500 rpm for 10 min at 4 ° C., and was used to measure cytokines (e.g. IL-6) and pulmonary protein levels. […]
The amount of total proteins in the broncho-alveolar lavage (BAL) samples from Example 23 was measured using the Pierce BCA Protein Assay kit from ThermoFisher Scientific (product #: 23225) as follows: BAL was diluted 1:5, mixed with bicinchoninic acid (BCA) reagent in a microplate, and incubated at 37° C. for 30 minutes. Absorbance was read at 580 nm, and protein concentration in BAL was calculated based on the absorbance readings of a bovine serum albumin standard curve.

Compound: CCCC(=O)[O-].[Na+] [Sodium Butyrate]
- BAL protein level, Mean ± SD (LPS 10 mg/kg i.t., 24 hours post, oral, 500 mg/kg): 2940.14 ± 2092.32 µg/mL
- reduction in BAL total proteins vs vehicle (LPS i.t., 500 mg/kg oral): 30.2%
